# “Also recorded” adds a separate entry of the source.
# Experiments:
# [1] = tested on: claudin-3; assay: Western blot of serum claudin-3 after hemorrhagic shock; type: in vivo; conditions: rat serum, 1 hour following VPA treatment; two bands seen in HS 1 hour group
# Protocol: To assess whether claudin-3 is a potential biomarker, independent serum samples were taken of sham (no hemorrhage and no treatment), HS 1 hour (1 hour following hemorrhagic shock), and VPA 1 hour (1 hour following VPA treatment) from individual rats and the level of the candidate biomarker was determined by Western blot with anti-claudin-3 antibody. […]
# [2] = tested on: claudin-3; assay: Western blot of intestinal claudin-3 protein after hemorrhagic shock; type: in vivo; conditions: rat intestine, 1, 6, and 24 hours after VPA treatment
# Protocol: (§1) An animal model of HS was used. Male Wistar-Kyoto rats (254.12±2.71 grams, Harlan, Indianapolis, Ind.) were used in the lethal model of hemorrhagic shock (Shults et al., J Trauma 2008; 64(3):629-638). Each animal's estimated blood volume was calculated using the formula: [estimated blood volume (mL)=weight (g)×0.06 (mL/g)+0.77]. About 1.3 mL of blood was manually drawn at the beginning and end of hemorrhage for analysis (included in the total hemorrhage calculation). The animals were hemorrhaged (40% of their calculated total blood volume) via a femoral arterial catheter over 10 minutes, followed by a 20% blood volume venous bleed over the next 50 minutes. Bleeding was performed using Kent Scientific adjustable pumps (Kent Scientific Corporation, N.J.). VPA (300 mg/kg) was administered via a femoral vein catheter after completion of hemorrhage. Blood pressure was monitored continuously during the experiment. […]
# Claudin-3 is a TJ protein that has important roles in establishing epithelial and endothelial barriers. To find out whether HS and VPA treatment affect claudin-3 protein in TJ of epithelial cells, protein expression was analyzed in intestinal tissue obtained from sham, HS 1 hour (1 hour after hemorrhagic shock), and VPA-treated animals (1 hour, 6 hours, and 24 hours after treatment). […]
# [3] = tested on: 22.7 kDa serum protein; assay: SELDI-TOF MS serum protein profiling in lethal hemorrhagic shock model; type: in vivo; conditions: rat, 60% blood loss, VPA 300 mg/kg via femoral vein, 24 hours after treatment
# Protocol: as §1, with “experiment. The mean arterial pressure (MAP) in animals that were subjected to hemorrhage dropped sharply after bleeding to approximately 20 mm Hg.” for “experiment.”
# ProteinChip profiling was performed on CM10 ProteinChip arrays (Ciphergen Biosystems, Fremont Calif.), as recommended by the manufacturer. […] The arrays were then inserted into a ProteinChip (Enterprise edition) TOF-MS and read at an optimized laser setting of 2000 nJ-5000 nJ. […]
# [4] = tested on: myeloperoxidase (MPO); assay: Lung tissue myeloperoxidase (MPO) level, sub-lethal hemorrhagic shock; type: in vivo; conditions: rat, 40% blood volume hemorrhage, VPA 300 mg/kg IV vs vehicle, 20 hour time point, p<0.05
# Protocol: (§2) Anesthetized Wistar-Kyoto rats (250-300 g) underwent 40% blood volume hemorrhage over 10 minutes followed by 30 minutes of un-resuscitated shock and were treated with 1) VPA 300 mg/kg or 2) vehicle control. Blood samples were obtained at baseline, following shock, and prior to sacrifice (1 hour, 4 hours, and 20 hours; n=3-4/time point/group). Serum samples were screened for possible biomarkers using a multiplex electrochemiluminescence detection assay, and results were confirmed using ELISA. Additionally, lung tissue lysate was examined for chemokine and myeloperoxidase (MPO) levels as markers for neutrophil infiltration and ALI. Additionally, lung CINC-1 (a chemokine belonging to the IL-8 family that promotes neutrophil chemotaxis) mRNA levels were measured by real-time PCR.
# (§3) Animals were hemorrhaged 40% of their total blood volume to induce sub-lethal HS, and were sacrificed at 1, 4, and 20 hours following hemorrhage and treatment. […] Selected laboratory values were measured, and were indicative of moderate HS (mean lactate 0.6 mmol/L at baseline, 4.3 mmol/L after hemorrhage; mean baseline hemoglobin 12.0 g/dL at baseline, 9.6 g/dL after hemorrhage).
# Myeloperoxidase (MPO) levels were measured in lung whole tissue extract as a marker for neutrophil infiltration (n=3-4/time point/group).
# [5] = tested on: CINC-1 mRNA; assay: Lung CINC-1 mRNA by real-time PCR, sub-lethal hemorrhagic shock; type: in vivo; conditions: rat, 40% blood volume hemorrhage, VPA 300 mg/kg IV vs vehicle, 1, 4 and 20 hours
# Protocol: as §2, §3
# To rule out possibility that an increase of CINC-1 protein in lung results from induction of the gene expression, lung tissue was assessed for CINC-1 mRNA levels (n=3-4/time point/group). […]
# [6] = tested on: CINC-1; assay: Serum CINC-1, multiplex electrochemiluminescence assay, sub-lethal hemorrhagic shock; type: in vivo; conditions: rat, 40% blood volume hemorrhage, VPA 300 mg/kg IV vs vehicle
# Protocol: as §2
# Animals were hemorrhaged 40% of their total blood volume to induce sub-lethal HS, and were sacrificed at 1, 4, and 20 hours following hemorrhage and treatment. This degree of blood loss was selected to allow 100% of animals in all groups to survive until the designated time of sacrifice. Selected laboratory values were measured, and were indicative of moderate HS (mean lactate 0.6 mmol/L at baseline, 4.3 mmol/L after hemorrhage; mean baseline hemoglobin 12.0 g/dL at baseline, 9.6 g/dL after hemorrhage). […]
# [7] = tested on: acute lung injury; assay: Acute lung injury (ALI) following hemorrhagic shock; type: in vivo; conditions: rat, 40% blood volume hemorrhage, VPA 300 mg/kg
# [8] = tested on: CINC-1; assay: Serum CINC-1 ELISA, sub-lethal hemorrhagic shock; type: in vivo; conditions: rat, 40% blood volume hemorrhage, VPA 300 mg/kg IV vs vehicle, 4 hours, p<0.05
# Protocol: as §2
# (§4) Animals were hemorrhaged 40% of their total blood volume to induce sub-lethal HS, and were sacrificed at 1, 4, and 20 hours following hemorrhage and treatment. This degree of blood loss was selected to allow 100% of animals in all groups to survive until the designated time of sacrifice. Selected laboratory values were measured, and were indicative of moderate HS (mean lactate 0.6 mmol/L at baseline, 4.3 mmol/L after hemorrhage; mean baseline hemoglobin 12.0 g/dL at baseline, 9.6 g/dL after hemorrhage).
# Conventional ELISA was used to confirm the data obtained using the multiplex electrochemiluminescence assay.
# [9] = tested on: claudin-3 mRNA; assay: RT-PCR of intestinal claudin-3 mRNA after hemorrhagic shock; type: in vivo; conditions: rat intestine, 1, 6 and 24 hours
# Protocol: To assess whether gene expression of claudin-3 responds to HS and VPA treatment, the mRNA expression of rat intestines among the groups of sham, HS and VPA treatment was compared at 1, 6 and 24 hours using RT-PCR methods.
# [10] = tested on: claudin-3; assay: iTRAQ quantification of claudin-3 peptide in serum after hemorrhagic shock; type: in vivo; conditions: rat serum, 24 hours post-VPA 300 mg/kg; BL to HS ratio 0.323
# Protocol: as §1, with “experiment. The mean arterial pressure (MAP) in animals that were subjected to hemorrhage dropped sharply after bleeding to approximately 20 mm Hg.” for “experiment.”
# Immunodepletion of serum abundant proteins was performed as follows. […] Column performance was monitored by sodium dodecyl sulphate-polyacrylamide gel electrophoresis (SDS-PAGE) followed by Coomassie Blue staining (BioBlue, BioRad). […]
# [11] = tested on: CINC-1; assay: Lung tissue CINC-1 ELISA, sub-lethal hemorrhagic shock; type: in vivo; conditions: rat, 40% blood volume hemorrhage, VPA 300 mg/kg IV vs vehicle, 20 hour time point, p=0.17
# Protocol: as §2, §4
# ELISA was used to measure CINC-1 levels in lung whole tissue extract (n=3-4/time point/group).
# [12] = tested on: hemorrhagic shock; conditions: rats, literature (Shults et al. 2008; Li et al. 2008; WO 2007117272); cited from earlier work
# [13] = tested on: hemorrhagic shock; assay: Survival in lethal model of hemorrhagic shock; type: in vivo; conditions: rat, HS 60% blood loss, VPA 300 mg/kg; untreated animals did not survive
# Protocol: as §1, with “experiment. The mean arterial pressure (MAP) in animals that were subjected to hemorrhage dropped sharply after bleeding to approximately 20 mm Hg.” for “experiment.”
# Male Wistar-Kyoto rats underwent HS (60% blood loss) followed by treatment with or without VPA (300 mg/kg). Serum samples were obtained at baseline (BL), end of hemorrhage (EH), and after VPA treatment (VPA), and subjected to iTRAQ and analyzed by liquid chromatography-tandem mass spectrometry (LC-MS/MS). […]
compound,measurement,setting,value
"CCCC(CCC)C(=O)O [VPA, Valproic acid]",serum claudin-3 by Western blot,[1],no claudin-3 was detected
same,intestinal claudin-3 protein level by Western blot,[2],significantly attenuated the HS-induced reduction of claudin-3
same,serum level of 22.7 kDa protein (SELDI-TOF MS) versus HS,[3],down-regulated
same,HS-induced increase of lung MPO levels,[4],significantly attenuated this effect
same,lung CINC-1 mRNA levels,[5],no significant changes between groups
same,HS-induced rise of serum CINC-1 (multiplex electrochemiluminescence assay),[6],appeared to be attenuated
same,development of ALI after hemorrhage,[7],inhibited and reduced
same,HS-induced increase of circulating CINC-1 (ELISA),[8],significantly attenuated this effect
same,intestinal claudin-3 mRNA expression,[9],did not significantly change
same,"ratio of VPA to HS, claudin-3 peptide isobaric tag signal in serum",[10],0.425
same,effects on lung CINC-1 levels,[11],not statistically significant
same,survival after lethal HS,[12],improves survival
same,survival after hemorrhagic shock,[13],significantly improved survival; also recorded: survived

# — US9435813B2, “Biomarkers of hemorrhagic shock” (The General Hospital Corporation, priority 2010, dated 2016)
